Laboratory results as given in ChEMBL document CHEMBL5126547, “Inhibition of the drug efflux activity of Ptch1 as a promising strategy to overcome chemotherapy resistance in cancer cells” (Eur J Med Chem, 2022).

Experiments:
[1] = target: T1, Protein patched homolog 1 (Homo sapiens) (UniProt Q13635); assay: Inhibition of Ptch1 in human adrenocortical carcinoma cells assessed as fold increase doxorubicin cytotoxicity; assay type: cell-based; details: Adrenocortical carcinoma cell
T1 sequence (whole entry): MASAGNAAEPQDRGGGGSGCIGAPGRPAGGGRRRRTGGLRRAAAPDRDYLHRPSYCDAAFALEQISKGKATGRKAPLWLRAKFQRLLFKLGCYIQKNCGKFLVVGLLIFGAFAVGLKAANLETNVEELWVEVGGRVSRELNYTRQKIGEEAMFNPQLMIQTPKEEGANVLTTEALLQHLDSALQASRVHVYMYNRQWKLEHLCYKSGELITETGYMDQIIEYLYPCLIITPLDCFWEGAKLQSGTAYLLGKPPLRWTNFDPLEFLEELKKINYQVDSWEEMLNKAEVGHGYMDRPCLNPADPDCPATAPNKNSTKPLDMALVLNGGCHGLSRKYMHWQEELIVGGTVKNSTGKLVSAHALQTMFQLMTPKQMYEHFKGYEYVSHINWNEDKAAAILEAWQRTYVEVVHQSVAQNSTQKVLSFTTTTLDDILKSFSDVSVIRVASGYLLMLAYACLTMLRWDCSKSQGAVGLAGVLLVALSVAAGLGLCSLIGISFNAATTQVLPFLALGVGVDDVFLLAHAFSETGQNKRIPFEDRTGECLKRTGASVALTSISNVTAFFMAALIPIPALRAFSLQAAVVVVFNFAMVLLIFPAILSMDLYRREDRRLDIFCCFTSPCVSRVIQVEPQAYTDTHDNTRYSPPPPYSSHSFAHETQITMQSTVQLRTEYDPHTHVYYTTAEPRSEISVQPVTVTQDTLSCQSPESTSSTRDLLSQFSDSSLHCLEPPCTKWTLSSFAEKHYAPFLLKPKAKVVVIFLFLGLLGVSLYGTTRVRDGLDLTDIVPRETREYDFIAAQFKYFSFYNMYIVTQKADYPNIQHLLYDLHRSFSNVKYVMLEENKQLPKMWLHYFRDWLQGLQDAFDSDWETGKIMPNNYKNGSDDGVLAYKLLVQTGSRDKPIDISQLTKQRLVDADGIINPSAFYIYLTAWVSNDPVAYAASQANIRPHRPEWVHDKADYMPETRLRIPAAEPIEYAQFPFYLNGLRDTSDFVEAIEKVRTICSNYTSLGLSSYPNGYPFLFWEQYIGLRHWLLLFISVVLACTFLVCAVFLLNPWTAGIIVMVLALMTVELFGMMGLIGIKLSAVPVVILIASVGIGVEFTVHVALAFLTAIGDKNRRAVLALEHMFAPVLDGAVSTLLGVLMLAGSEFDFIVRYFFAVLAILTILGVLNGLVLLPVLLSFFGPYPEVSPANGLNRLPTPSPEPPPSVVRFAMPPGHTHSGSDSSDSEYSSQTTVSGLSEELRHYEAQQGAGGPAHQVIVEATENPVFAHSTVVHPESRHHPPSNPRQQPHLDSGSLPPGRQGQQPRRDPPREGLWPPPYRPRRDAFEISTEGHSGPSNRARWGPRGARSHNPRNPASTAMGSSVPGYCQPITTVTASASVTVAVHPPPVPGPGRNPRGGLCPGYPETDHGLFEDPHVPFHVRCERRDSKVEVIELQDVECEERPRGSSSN

[2] = Metabolic stability in rat liver microsomes assessed as half life; assay type: ADME, Microsome
[3] = Lipophilicity, logD of compound; assay type: physicochemical; details: octanol/water
[4] = target: T1, Protein patched homolog 1 (Homo sapiens); assay: Inhibition of Ptch1 in human Melanoma cells assessed as fold increase doxorubicin cytotoxicity; assay type: cell-based; details: Melanoma cell
[5] = In vivo inhibition of Ptch1 in vemurafenib-resistant human A-375 BRAF V600E cells xenografted in Nu/Nu NMRI mouse assessed as fold increase in vemurafenib anticancer activity at 5 mg/kg, ip administered 5 days a week measured on after 23 days of first treatment relative to control; assay type: functional; details: time 5 day
[6] = Inhibition of Ptch1 in vemurafenib-resistant human A-375 BRAF V600E cells assessed as fold increase in doxorubicin cytotoxicity
[7] = target: T1, Protein patched homolog 1 (Homo sapiens); assay: Inhibition of Ptch1 in human Melanoma cells assessed as fold increase vemurafenib cytotoxicity; assay type: cell-based; details: Melanoma cell
[8] = Inhibition of Ptch1 in vemurafenib-resistant human A-375 BRAF V600E cells assessed as fold increase in cisplatin cytotoxicity
[9] = target: T1, Protein patched homolog 1 (Homo sapiens); assay: Inhibition of Ptch1 in human Melanoma cells assessed as fold increase cisplatin cytotoxicity; assay type: cell-based; details: Melanoma cell

| half-life [2] [min] | logD [3] | Compound | fold change (FC) [1] | fold change (FC) [4] | fold change (FC) [5] | fold change (FC) [6] | fold change (FC) [7] | fold change (FC) [8] | fold change (FC) [9] |
| --- | --- | --- | --- | --- | --- | --- | --- | --- | --- |
| > 60 | 2.9 | COc1ccc(CCN2CCC(Nc3nc4ccccc4n3Cc3ccc(F)cc3)CC2)cc1 [ASTEMIZOLE] | 10 | – | – | – | – | – | – |
| 31 | 3.5 | CSc1ccc2c(c1)C(N1CCN(C)CC1)Cc1ccccc1S2 (stereo unspecified) [METITEPINE] | 6.6 | 5.8 | 10 | 15 | 4 | 3.6 | 3 |
| 1 | – | COc1cc(C)c(CC/C(C)=C/Cc2cc(O)ccc2O)c(C)c1C [PANICEIN A HYDROQUINONE] | 128 | – | 10 | 68 | – | – | – |
